Laboratory results as given in patent publication US12187709B2 (Genentech, Inc., priority 2021, dated 2025).

Key:
Cbl-b = Cbl-b (Homo sapiens (Human), UniProt Q13191); assay: Cbl-b LCK Ub TR-FRET assay (Cbl-b Lck HTRF); assay type: biochemical; conditions: for IC50: Cbl-b LCK Ub TR-FRET; for fold-selectivity (Cbl-b over C-cbl) / (fold-selectivity) Cbl-b and C-Cbl Selectivity: ratio C-cbl Lck HTRF IC50 / Cbl-b Lck HTRF IC50
Description: (§1) 6 μL of detection mixture was added to all wells and briefly centrifuged before incubating for 20 min at room temperature. […] IC50 was generated using no LCK as the low control and DMSO as the high control.

c-Cbl = c-Cbl (Homo sapiens (Human), UniProt P22681); assay: C-Cbl LCK Ub TR-FRET assay (C-cbl Lck HTRF); assay type: biochemical
Description: as §1

Sequence of c-Cbl (P22681 47-435): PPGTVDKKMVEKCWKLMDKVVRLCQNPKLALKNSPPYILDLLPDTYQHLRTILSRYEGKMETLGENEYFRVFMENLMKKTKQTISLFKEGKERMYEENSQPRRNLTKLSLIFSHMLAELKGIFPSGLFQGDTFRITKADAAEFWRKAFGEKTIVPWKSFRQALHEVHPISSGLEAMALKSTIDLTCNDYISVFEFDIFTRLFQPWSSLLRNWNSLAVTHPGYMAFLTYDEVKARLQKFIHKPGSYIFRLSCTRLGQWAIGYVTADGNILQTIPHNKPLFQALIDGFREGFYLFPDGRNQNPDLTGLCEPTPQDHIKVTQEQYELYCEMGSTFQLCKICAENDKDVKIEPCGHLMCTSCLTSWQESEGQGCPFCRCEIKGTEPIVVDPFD
Sequence of Cbl-b (Q13191 40-426): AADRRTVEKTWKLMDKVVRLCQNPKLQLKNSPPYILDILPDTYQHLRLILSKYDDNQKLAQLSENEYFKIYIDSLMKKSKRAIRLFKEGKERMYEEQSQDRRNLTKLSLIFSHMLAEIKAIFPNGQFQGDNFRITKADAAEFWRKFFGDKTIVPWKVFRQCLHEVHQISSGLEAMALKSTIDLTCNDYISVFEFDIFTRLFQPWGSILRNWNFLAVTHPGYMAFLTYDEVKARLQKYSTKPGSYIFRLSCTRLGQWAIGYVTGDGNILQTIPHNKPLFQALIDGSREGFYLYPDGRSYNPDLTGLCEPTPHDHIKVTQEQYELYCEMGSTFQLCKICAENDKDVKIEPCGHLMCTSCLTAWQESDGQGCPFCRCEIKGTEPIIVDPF

| Compound | IC50 (Cbl-b) | fold-selectivity (Cbl-b over C-cbl) (Cbl-b) | IC50 (c-Cbl) | IC50 (Cbl-b; Example 121) | (fold-selectivity) Cbl-b and C-Cbl Selectivity (Cbl-b) |
| --- | --- | --- | --- | --- | --- |
| Cn1cnnc1[C@]1(c2cccc(N3Cc4c(cc(CNC5(C)CCC5)cc4C(F)(F)F)C3=O)c2)C[C@@H](F)C1 [Compound 36, 2-(3-((1r,3r)-3-fluoro-1-(4-methyl-4H-1,2,4-triazol-3-yl)cyclobutyl)phenyl)-6-(((1-methylcyclobutyl)amino)methyl)-4-(trifluoromethyl)isoindolin-1-one] | 0.011 µM | (1.1x) | 0.012 µM | – | – |
| Cn1cnnc1[C@@](F)(c1ccccc1)c1cccc(N2Cc3c(Cl)cc(CNC4(C)CCC4)cc3C2=O)c1 (single isomer, unassigned) [Compound 322] | 10 µM | 2.0x | 20 µM | – | – |
| Cn1nnnc1[C@H](c1cccc(N2Cc3c(cc(CNC4(C)CCC4)cc3C(F)(F)F)C2=O)c1)C1COC1 (single isomer, unassigned) [Compound 349] | ≥ 20 µM | 1x | 20 µM | – | – |
| Cn1cnnc1[C@H](OC1CC1)c1cccc(N2Cc3c(cc(CNC4(C)CCC4)cc3C(F)(F)F)C2=O)c1 (single isomer, unassigned) [Compound 45] | 0.29 µM | (1.4x) | 0.41 µM | – | – |
| CO[C@H]1C[C@](c2cccc(N3Cc4c(cc(CNC5(C)COC5)cc4C(F)(F)F)C3=O)c2)(c2nncn2C)C1 [Compound 479, 2-(3-((1r,3r)-3-methoxy-1-(4-methyl-4H-1,2,4-triazol-3-yl)cyclobutyl)phenyl)-6-(((3-methyloxetan-3-yl)amino)methyl)-4-(trifluoromethyl)isoindolin-1-one] | – | – | 0.25 µM | 0.029 µM | 8.6x |
| Cn1cnnc1C1(c2cccc(N3Cc4c(cc(CNC5(C)CCC5)cc4C(F)(F)F)C3=O)c2)CC2(CN(S(C)(=O)=O)C2)C1 [Compound 98, 2-(3-(6-(4-methyl-4H-1,2,4-triazol-3-yl)-2-(methylsulfonyl)-2-azaspiro[3.3]heptan-6-yl)phenyl)-6-(((1-methylcyclobutyl)amino)methyl)-4-(trifluoromethyl)isoindolin-1-one] | 1.3 µM | 5.8x | 7.5 µM | – | – |
| Cc1cc(C2(c3nncn3C)CC(F)(F)C2)cc(N2Cc3c(cc(CNC4(C)CCC4)cc3C(F)(F)F)C2=O)n1 [Compound 60, 2-(4-(3,3-difluoro-1-(4-methyl-4H-1,2,4-triazol-3-yl)cyclobutyl)-6-methylpyridin-2-yl)-6-(((1-methylcyclobutyl)amino)methyl)-4-(trifluoromethyl)isoindolin-1-one] | 0.11 µM | (0.73x) | 0.08 µM | – | – |
| Cn1cnnc1C1(c2cccc(N3Cc4c(cc(CNC5(C)CCC5)cc4C(F)(F)F)C3=O)c2)CC2(CC(O)C2)C1 (stereo not drawn) [Compound 93, 2-(3-(6-hydroxy-2-(4-methyl-4H-1,2,4-triazol-3-yl)spiro[3.3]heptan-2-yl)phenyl)-6-(((1-methylcyclobutyl)amino)methyl)-4-(trifluoromethyl)isoindolin-1-one] | 0.12 µM | 7.3x | 0.9 µM | – | – |
| Cn1cnnc1[C@@H](c1cccc(N2Cc3c(cc(CNC4(C)CCC4)cc3C(F)(F)F)C2=O)c1)[C@@H]1CCS(=O)(=O)C1 (single isomer, unassigned) [Compound 438] | – | – | 20 µM | 3 µM | 6.8x |
| CCNc1cc([C@]2(c3nncn3C)C[C@@H](C)C2)cc(N2Cc3c(cc(CNC4(C)CCC4)cc3C(F)(F)F)C2=O)n1 [Compound 5, 2-(6-(ethylamino)-4-((1s,3s)-3-methyl-1-(4-methyl-4H-1,2,4-triazol-3-yl)cyclobutyl)-pyridin-2-yl)-6-(((1-methylcyclobutyl)amino)methyl)-4-(trifluoromethyl)isoindolin-1-one] | 0.0071 µM | (0.64x) | 0.0045 µM | – | – |
| Cn1cnnc1[C@](O)(c1ccccc1)c1cccc(N2Cc3c(Cl)cc(CNC4(C)CCC4)cc3C2=O)c1 (single isomer, unassigned) [Compound 411] | – | – | 20 µM | ≥ 20 µM | 1.0x |
| Cn1cnnc1[C@H](c1cccc(N2Cc3c(cc(CNC4(C)CCC4)cc3C(F)(F)F)C2=O)c1)[C@@H]1CCS(=O)(=O)C1 (single isomer, unassigned) [Compound 439] | – | – | 20 µM | 14 µM | 1.4 x |
| Cn1cnnc1[C@]1(c2cccc(N3Cc4c(cc(CNC5(C)CCC5)cc4C(F)(F)F)C3=O)c2)C[C@H]([S@+](C)[O-])C1 (single isomer, unassigned) [Compound 162] | 9.1 µM | 2.1x | 20 µM | – | – |
| Cn1cnnc1[C@H](c1cccc(N2Cc3c(cc([C@@H](NC4(C)CCC4)C4CC4)cc3C(F)(F)F)C2=O)c1)C1COC1 (single isomer, unassigned) [Compound 457] | – | – | 11 µM | 7.1 µM | 1.6x |
| CC(C)[C@@](O)(c1cccc(N2Cc3c(cc(CNC4(C)CCC4)cc3C(F)(F)F)C2=O)c1)c1nncn1C [Compound 309, (R)-2-(3-(1-hydroxy-2-methyl-1-(4-methyl-4H-1,2,4-triazol-3-yl)propyl)phenyl)-6-(((1-methylcyclobutyl)amino)methyl)-4-(trifluoromethyl)isoindolin-1-one] | 5.3 µM | 3.8x | 20 µM | – | – |
| Cn1cnnc1C1(c2cccc(N3Cc4c(cc(CNC5(C)CCC5)cc4C(F)(F)F)C3=O)c2)CC2(CN(C3COC3)C2)C1 [Compound 199, 2-(3-(6-(4-methyl-4H-1,2,4-triazol-3-yl)-2-(oxetan-3-yl)-2-azaspiro[3.3]heptan-6-yl)phenyl)-6-(((1-methylcyclobutyl)amino)methyl)-4-(trifluoromethyl)isoindolin-1-one] | 15 µM | 1.4x | 20 µM | – | – |
| CC(C)[C@H]1CN(C)CCN1Cc1cc2c(c(C(F)(F)F)c1)CN(c1cccc([C@H](c3nncn3C)C3COC3)c1)C2=O (single isomer, unassigned) [Compound 11] | 5.1 µM | (3.9x) | ≥ 20 µM | – | – |
| Cn1cnnc1[C@@H](OC1CCC1)c1cccc(N2Cc3c(cc(CNC4(C)CCC4)cc3C(F)(F)F)C2=O)c1 (single isomer, unassigned) [Compound 46] | ≥ 20 µM | (1.0x) | 20 µM | – | – |
| C[C@@H](NC1(C)CCC1)c1cc2c(c(C(F)(F)F)c1)CN(c1cccc(C(c3nncn3C)C3COC3)c1)C2=O (stereo partly drawn) [Compound 284, 2-(3-((4-methyl-4H-1,2,4-triazol-3-yl)(oxetan-3-yl)methyl)phenyl)-6-((R)-1-((1-methylcyclobutyl)amino)ethyl)-4-(trifluoromethyl)isoindolin-1-one] | 0.51 µM | 7.3x | 3.7 µM | – | – |
| Cn1cnnc1[C@H](c1cccc(N2Cc3c(cc(CNC4(C)CCC4)cc3C(F)F)C2=O)c1)C1CC(F)C1 (stereo partly drawn) [Compound 460, 4-(difluoromethyl)-2-(3-((S)-((1r,3S)-3-fluorocyclobutyl)(4-methyl-4H-1,2,4-triazol-3-yl)methyl)phenyl)-6-(((1-methylcyclobutyl)amino)methyl)isoindolin-1-one] | – | – | 3.9 µM | 0.61 µM | 6.4x |
